Source: patent publication US5096884A, “Glidobactin PF-1 peptide antibiotics” (Bristol-Myers Squibb Company, priority 1990, dated 1992)
Converted amounts (≈) assume the structure as drawn. Where two headings read alike, the source gives them in different places.

Experiments:
[1] = test system: Staphyloccoccus aureus 209P; test: MIC by serial agar dilution method; format: cell-based; settings: Nutrient agar; inoculum 10^4 CFU/mL
[2] = test system: Streptoccoccus faecalis A9612; test: MIC by serial agar dilution method; format: cell-based; settings: Nutrient agar; inoculum 10^4 CFU/mL
[3] = test system: Bacillus subtilis PCI 219; test: MIC by serial agar dilution method; format: cell-based; settings: Nutrient agar; inoculum 10^4 CFU/mL
Escherichia coli NIHJ = test: MIC by serial agar dilution method; format: cell-based; settings: Nutrient agar; inoculum 10^4 CFU/mL
[4] = test system: Klebsiella pneumoniae D 11; test: MIC by serial agar dilution method; format: cell-based; settings: Nutrient agar; inoculum 10^4 CFU/mL
[5] = test system: Pseudomonas aeruginosa A9930; test: MIC by serial agar dilution method; format: cell-based; settings: Nutrient agar; inoculum 10^4 CFU/mL
[6] = test system: Candida albicans IAM 4888; test: MIC by serial agar dilution method; format: cell-based; settings: Sabouraud dextrose agar; inoculum 10^5-10^7
Candida albicans A9540 = test: MIC by serial agar dilution method; format: cell-based; settings: Sabouraud dextrose agar; inoculum 10^5-10^7
[7] = test system: Cryptococcus neoformans D49; test: MIC by serial agar dilution method; format: cell-based; settings: Sabouraud dextrose agar; inoculum 10^5-10^7
[8] = test system: Aspergillus fumigatus IAM 2530; test: MIC by serial agar dilution method; format: cell-based; settings: Sabouraud dextrose agar; inoculum 10^5-10^7
[9] = test system: Fusarium moniliforme A2284; test: MIC by serial agar dilution method; format: cell-based; settings: Sabouraud dextrose agar; inoculum 10^5-10^7
[10] = test system: Trichophyton mentagrophytes D155; test: MIC by serial agar dilution method; format: cell-based; settings: Sabouraud dextrose agar; inoculum 10^5-10^7
[11] = test system: Blastomyces dermatitidis IFO 8144; test: MIC by serial agar dilution method; format: cell-based; settings: Sabouraud dextrose agar; inoculum 10^5-10^7
[12] = test system: Sporothrix schenckii IFO 8158; test: MIC by serial agar dilution method; format: cell-based; settings: Sabouraud dextrose agar; inoculum 10^5-10^7
Mucor spinosus IFO 5317 = test: MIC by serial agar dilution method; format: cell-based; settings: Sabouraud dextrose agar; inoculum 10^5-10^7
bacteria tested = test: In vitro antibacterial activity; format: cell-based; settings: at 100 μg/ml
Protocol: (§1) The minimum inhibitory concentrations (MIC's) of glidobactin PF-1 were determined for various microorganisms by a serial agar dilution method. Nutrient agar (Eiken) was used for bacteria and Sabouraud dextrose agar (Difco) for fungi. The inoculum size was adjusted to 10^4 CFU/mL for bacteria and 10^5 -10^7 for fungi. Invitro antibacterial and antifungal activities of glidobactin PF-1 are shown in Table 3 together with the activities found with glidobactin C.

fungi = test: In vitro antifungal activity; format: cell-based
Protocol: as §1

[13] = test system: B16-F10 (murine melanoma) cells; format: cell-based; settings: for IC50: B16-F10 cells, 72 hrs
Protocol: (§2) Glidobactin PF-1 and glidobactin A were tested for in vitro cytotoxicity against murine tumor cell lines and for in vivo antitumor activity in mice. Mitomycin C was used as a reference compound in both in vitro and in vivo experiments. B16-F10 (murine melanoma) cells were grown to the logarithmic phase in an enriched Eagle minimum essential medium supplemented with fetal calf serum (FCS, 10%) and kanamycin (60 μg/ml). P388 (murine lymphocytic leukemia) cells were in RPMI1640 medium supplemented with FCS (10%), penicillin (100 U/ml), and streptomycin (100 μg/ml). B16-F10 and P388 cells were harvested and implanted into wells of a 96-well (for B16-F10 cells) and a 24-well (for P388 cells) tissue culture plate with test materials at the inoculum sizes of 3×10^4 and 2×10^4 cells/mL, respectively. They were incubated at 37° C. in a humidified atmosphere of 5% CO2 and 95% air for 72 hrs. The cytotoxicity against B16-F10 cells was colorimetrically determined at 540 nm after staining viable cells with 0.006% neutral red solution. As for P388 cells, the number of viable cells was determined by a Coulter counter.

[14] = test system: P388 (murine lymphocytic leukemia) cells; format: cell-based; settings: for IC50: P388 cells, 72 hrs
Protocol: as §2

[15] = test system: DNA synthesis in L1210 murine leukemia cells; test: Inhibition of macromolecule synthesis, 3H-thymidine incorporation; format: cell-based; settings: for IC50, DNA synthesis: L1210 cells, 3H-thymidine, 4 hrs; for inhibitory effect on DNA synthesis (in words): at 100 μg/mL, the highest concentration tested
Protocol: (§3) Inhibitory effects of glidobactins A and PF-1 on macromolecule biosynthesis (DNA, RNA, and protein) were determined in cultured L1210 murine leukemia cells. The cells (5×10^5 cells/mL) were incubated with test compounds at 37° C. for 15 min and further incubated for 4 hrs after the addition of labeled precursor, ^3 H-thymidine, ^14 C-uridine, or ^3 H-leucine into the cultured mixture. After washing with chilled 5% trichloroacetic acid solution, the radioactivity incorporated into the acid-insoluble fraction of the cells was determined by a liquid scintillation counter.

[16] = test system: RNA synthesis in L1210 murine leukemia cells; test: Inhibition of macromolecule synthesis, 14C-uridine incorporation; format: cell-based; settings: for IC50, RNA synthesis: L1210 cells, 14C-uridine, 4 hrs; for inhibitory effect on RNA synthesis (in words): at 100 μg/mL, the highest concentration tested
Protocol: as §3

[17] = test system: protein synthesis in L1210 murine leukemia cells; test: Inhibition of macromolecule synthesis, 3H-leucine incorporation; format: cell-based; settings: for effect on protein synthesis (in words) / IC50, Protein synthesis: L1210 cells; for IC50, Protein synthesis: 3H-leucine, 4 hrs
Protocol: as §3

B16 Melanoma (ip) = settings: for T/C % of MST: ip, QD1→9, ≥125% significant; for antitumor activity against ip-B16 melanoma (in words): at the doses tested
Protocol: (§4) In vivo antitumor activity of glidobactin PF-1 was determined in experimental mouse tumor systems. Female CDF1 and male BDF1 mice were intraperitoneally inoculated with 0.4 mL of diluted ascitic fluid containing 10^6 lymphocytic leukemia P388 cells and 0.5 mL of 10% melanotic melanoma B16 brei, respectively. Test compounds were intraperitoneally administered daily for 9 days starting from 1 day after the tumor implantation.

P388 Leukemia (ip) = settings: for T/C % of MST: ip, QD1→9, ≥125% significant; for maximum T/C value: P388 leukemia, ip daily for 9 days
Protocol: as §4

Piricularia oryzae D9 = settings: Sabouraud dextrose agar; inoculum 10^5-10^7

## CCC=CCC=CCCC=CC=CC(=O)NC(C(=O)NC1CC(O)CCNC(=O)C=CC(C)NC1=O)C(C)O (stereo not shown) [Glidobactin PF-1, glidobactin PF-1]
[1]
  MIC: > 100 µg/mL
[2]
  MIC: > 100 µg/mL
[3]
  MIC: > 100 µg/mL
Escherichia coli NIHJ
  MIC: > 100 µg/mL
[4]
  MIC: > 100 µg/mL
[5]
  MIC: > 100 µg/mL
[6]
  MIC: 12.5 µg/mL (≈ 22.9 µM)
Candida albicans A9540
  MIC: 6.3 µg/mL (≈ 11.6 µM)
[7]
  MIC: 25 µg/mL (≈ 45.9 µM)
[8]
  MIC: 12.5 µg/mL (≈ 22.9 µM)
[9]
  MIC: > 50 µg/mL
[10]
  MIC: 12.5 µg/mL (≈ 22.9 µM)
[11]
  MIC: 12.5 µg/mL (≈ 22.9 µM)
[12]
  MIC: > 50 µg/mL
Mucor spinosus IFO 5317
  MIC: 3.1 µg/mL (≈ 5.69 µM)
Bacteria tested
  inhibition of the bacteria tested (in words): did not inhibit
fungi
  activity against fungi (in words): moderate activity
fungi; relative to glidobactin C
  intrinsic antifungal activity compared with glidobactin C (in words): considerably weaker
[13]
  cytotoxicity (in words): potent cytotoxicity
  IC50: 0.07 µg/mL (≈ 0.129 µM)
[14]
  cytotoxicity (in words): potent cytotoxicity
  IC50: 0.010 µg/mL (≈ 0.0184 µM)
[15]
  IC50, DNA synthesis: > 100 µg/mL
  inhibitory effect on DNA synthesis (in words): no significant inhibitory effect
[16]
  IC50, RNA synthesis: > 100 µg/mL
  inhibitory effect on RNA synthesis (in words): no significant inhibitory effect
[17]
  effect on protein synthesis (in words): inhibited protein synthesis
  IC50, Protein synthesis: 0.07 µg/mL (≈ 0.129 µM)
[17]; relative to glidobactin A
  inhibitory activity on protein synthesis relative to glidobactin A: approximately half
B16 Melanoma (ip); B16, 0.13 mg/kg/day
  T/C % of MST: 103%
B16 Melanoma (ip); B16, 0.25 mg/kg/day
  T/C % of MST: 118%
B16 Melanoma (ip); B16, 0.5 mg/kg/day
  T/C % of MST: 113%
B16 Melanoma (ip); B16, 1 mg/kg/day
  T/C % of MST: 111%
B16 Melanoma (ip)
  antitumor activity against ip-B16 melanoma (in words): no significant antitumor activity
P388 Leukemia (ip); P388, 0.016 mg/kg/day
  T/C % of MST: 118%
P388 Leukemia (ip); P388, 0.031 mg/kg/day
  T/C % of MST: 129%
P388 Leukemia (ip); P388, 0.063 mg/kg/day
  T/C % of MST: 133%
P388 Leukemia (ip); P388, 0.13 mg/kg/day
  T/C % of MST: 160%
P388 Leukemia (ip); P388, 0.25 mg/kg/day
  T/C % of MST: 170%
P388 Leukemia (ip); P388, 0.5 mg/kg/day
  T/C % of MST: 174%
P388 Leukemia (ip); P388, 1 mg/kg/day
  T/C % of MST: 130%
P388 Leukemia (ip)
  maximum T/C value: 174%
P388 Leukemia (ip); in vivo P388, relative to glidobactin A
  potency against P388 relative to glidobactin A: approximately 4 times
Piricularia oryzae D9
  MIC: 12.5 µg/mL (≈ 22.9 µM)
In methanol, ethanol, n-butanol, and dimethyl sulfoxide
  solubility (in words): soluble
In n-hexane and water
  solubility (in words): insoluble

## CCCCCCC/C=C/C=C/C(=O)N[C@H](C(=O)N[C@H]1C[C@@H](O)CCNC(=O)/C=C/[C@H](C)NC1=O)[C@@H](C)O [Glidobactin A, glidobactin A]
[13]
  cytotoxicity (in words): potent cytotoxicity
  IC50: 0.04 µg/mL (≈ 0.0768 µM)
[14]
  cytotoxicity (in words): potent cytotoxicity
  IC50: 0.008 µg/mL (≈ 0.0154 µM)
[15]
  IC50, DNA synthesis: > 100 µg/mL
  inhibitory effect on DNA synthesis (in words): no significant inhibitory effect
[16]
  IC50, RNA synthesis: > 100 µg/mL
  inhibitory effect on RNA synthesis (in words): no significant inhibitory effect
[17]
  effect on protein synthesis (in words): inhibited protein synthesis
  IC50, Protein synthesis: 0.03 µg/mL (≈ 0.0576 µM)
B16 Melanoma (ip); B16, 0.13 mg/kg/day
  T/C % of MST: 97%
B16 Melanoma (ip); B16, 0.25 mg/kg/day
  T/C % of MST: 100%
B16 Melanoma (ip); B16, 0.5 mg/kg/day
  T/C % of MST: 113%
B16 Melanoma (ip); B16, 1 mg/kg/day
  T/C % of MST: 116%
B16 Melanoma (ip)
  antitumor activity against ip-B16 melanoma (in words): no significant antitumor activity
P388 Leukemia (ip); P388, 0.031 mg/kg/day
  T/C % of MST: 100%
P388 Leukemia (ip); P388, 0.063 mg/kg/day
  T/C % of MST: 110%
P388 Leukemia (ip); P388, 0.13 mg/kg/day
  T/C % of MST: 130%
P388 Leukemia (ip); P388, 0.25 mg/kg/day
  T/C % of MST: 150%
P388 Leukemia (ip); P388, 0.5 mg/kg/day
  T/C % of MST: 155%
P388 Leukemia (ip); P388, 1 mg/kg/day
  T/C % of MST: 190%
P388 Leukemia (ip)
  maximum T/C value: 190%

## CCCCCCCCC/C=C/C=C/C(=O)N[C@H](C(=O)N[C@H]1C[C@@H](O)CCNC(=O)/C=C\[C@H](C)NC1=O)[C@@H](C)O [Glidobactin C, glidobactin C]
[1]
  MIC: > 100 µg/mL
[2]
  MIC: > 100 µg/mL
[3]
  MIC: > 100 µg/mL
Escherichia coli NIHJ
  MIC: > 100 µg/mL
[4]
  MIC: > 100 µg/mL
[5]
  MIC: > 100 µg/mL
[6]
  MIC: 0.4 µg/mL (≈ 0.729 µM)
Candida albicans A9540
  MIC: 0.2 µg/mL (≈ 0.364 µM)
[7]
  MIC: 0.8 µg/mL (≈ 1.46 µM)
[8]
  MIC: 1.6 µg/mL (≈ 2.92 µM)
[9]
  MIC: > 50 µg/mL
[10]
  MIC: 0.8 µg/mL (≈ 1.46 µM)
[11]
  MIC: 3.1 µg/mL (≈ 5.65 µM)
[12]
  MIC: > 50 µg/mL
Mucor spinosus IFO 5317
  MIC: 0.8 µg/mL (≈ 1.46 µM)
Piricularia oryzae D9
  MIC: 6.3 µg/mL (≈ 11.5 µM)

## CO[C@@]12[C@H](COC(N)=O)C3=C(C(=O)C(C)=C(N)C3=O)N1C[C@@H]1N[C@@H]12 [Mitomycin C]
[13]
  IC50: 0.50 µg/mL (≈ 1.5 µM)
[15]
  IC50, DNA synthesis: 1.7 µg/mL (≈ 5.08 µM)
[16]
  IC50, RNA synthesis: > 100 µg/mL
[17]
  IC50, Protein synthesis: > 100 µg/mL
P388 Leukemia (ip); P388, 0.031 mg/kg/day
  T/C % of MST: 115%
P388 Leukemia (ip); P388, 0.063 mg/kg/day
  T/C % of MST: 140%
P388 Leukemia (ip); P388, 0.13 mg/kg/day
  T/C % of MST: 145%
P388 Leukemia (ip); P388, 0.25 mg/kg/day
  T/C % of MST: 170%
P388 Leukemia (ip); P388, 0.5 mg/kg/day
  T/C % of MST: 190%
P388 Leukemia (ip); P388, 1 mg/kg/day
  T/C % of MST: 225%
